One assay addresses T1, human H3 receptor (Homo sapiens, UniProt Q9Y5N1).
T1 construct: expressed in transfected cells
In words: Human H3 radioligand binding ([3H]-N-alpha-methylhistamine, CHO cell membranes, SPA). Particulars: binding constant as letter class. On the procedure:
(§1) Cell pellets were resuspended in 5 mM Tris-HCl, pH 7.5 with […] and a cocktail of protease inhibitors (Complete Protease Inhibition Tablets, Roche Diagnostics). Cells were disrupted using a polytron cell homogenizer and the suspension was centrifuged at 1000×g for 10 minutes at 4° C. The pellet was discarded and the supernatant centrifuged at 40,000×g for 30 min at 4° C. This membrane pellet was washed in membrane buffer containing 50 mM Tris-HCl, pH 7.5 with 0.6 mM EDTA, 5 mM MgCl2 and protease inhibitors, recentrifuged as above and the final pellet resuspended in membrane buffer plus 250 mM sucrose and frozen at −80° C.
(§2) Membranes were resuspended in 50 mM Tris HCl (pH 7.4), 5 mM MgCl2, 0.1% BSA. The membrane suspensions (10 μg protein per well) were incubated in a 96 well microtiter plate with [^3H]-N-alpha-methylhistamine (approximately 1 nM final concentration), test compounds at various concentrations (0.01 nM-30 μM) and scintillation proximity beads (Perkin Elmer, FlashBlueGPCR Scintillating Beads) in a final volume of 80 μl for 4 hours at room temperature, protected from light. Non-specific binding was determined in the presence of 10 μM clobenpropit. Radioligand bound to receptor, and therefore in proximity to the scintillation beads, was measured using a MicroBeta scintillation counter.

The target in assay [1] is T2, rat histamine H3 receptor (Rattus norvegicus, UniProt Q9QYN8).
T2 construct: encoding the entire 445-amino-acid rat histamine H3 receptor; expressed in transfected cells
T2 sequence (Q9QYN8 whole entry): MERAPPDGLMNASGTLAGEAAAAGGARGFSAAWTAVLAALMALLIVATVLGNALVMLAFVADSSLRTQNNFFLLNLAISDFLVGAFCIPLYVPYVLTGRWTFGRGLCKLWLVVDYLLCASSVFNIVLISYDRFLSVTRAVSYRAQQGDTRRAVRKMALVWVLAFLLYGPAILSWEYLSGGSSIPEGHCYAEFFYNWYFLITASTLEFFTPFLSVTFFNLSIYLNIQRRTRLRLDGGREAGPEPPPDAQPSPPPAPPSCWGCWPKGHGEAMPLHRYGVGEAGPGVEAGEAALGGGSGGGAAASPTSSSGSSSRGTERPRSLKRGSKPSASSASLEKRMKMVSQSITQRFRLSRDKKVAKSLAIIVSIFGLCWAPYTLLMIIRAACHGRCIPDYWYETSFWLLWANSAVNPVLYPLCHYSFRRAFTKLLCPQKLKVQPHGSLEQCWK
In words: Rat H3 radioligand binding ([3H]-N-alpha-methylhistamine, CHO-A3 cell membranes, SPA). On the procedure: as §1, with “This was engineered into the pIRES-neo3 mammalian expression vector, which was stably transfected into the CHO-A3 cell line (Euroscreen, Belgium), followed by clonal selection by limiting dilution. Cells were harvested and cell pellets were frozen (−80° C.). Cell pellets” for “Cell pellets”
as §2

Setting [2] is: Table A, binding constant as letter class, read-out: Rat H3 Ki.
Where [3] appears, read: Table B, binding constant as letter class, read-out: rat H3 Ki.

The structures appear in SMILES notation. Where “and” joins values, the source holds several entries; their conditions need not be identical. Equal values may be shown once. Read-outs that look alike come from different tables or passages of the source.

T1 sequence (Q9Y5N1 whole entry): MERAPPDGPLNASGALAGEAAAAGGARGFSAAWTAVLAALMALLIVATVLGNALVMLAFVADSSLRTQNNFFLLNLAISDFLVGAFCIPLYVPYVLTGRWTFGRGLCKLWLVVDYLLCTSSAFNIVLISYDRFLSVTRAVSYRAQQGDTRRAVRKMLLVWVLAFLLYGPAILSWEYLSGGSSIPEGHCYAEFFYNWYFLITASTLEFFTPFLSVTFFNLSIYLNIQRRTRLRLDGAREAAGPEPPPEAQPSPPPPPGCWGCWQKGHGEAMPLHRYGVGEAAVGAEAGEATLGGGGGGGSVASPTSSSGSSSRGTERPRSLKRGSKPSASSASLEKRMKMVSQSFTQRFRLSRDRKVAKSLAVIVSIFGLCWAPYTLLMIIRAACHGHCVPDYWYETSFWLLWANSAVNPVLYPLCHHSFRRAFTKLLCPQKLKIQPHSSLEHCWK

For `C[C@@H]1CCCN1CCCOc1ccc(-c2n[nH]c(=O)c3c2CCC3)cc1` [Example 12, 4-{4-[3-((R)-2-Methyl-pyrrolidin-1-yl)-propoxy]-phenyl}-2,5,6,7-tetrahydro-cyclopenta[d]pyridazin-1-one], the Ki (on human H3 receptor (Table A); in assay [1] (setting [2])) was 0.1 to 100 nM throughout.

`C[C@@H]1CCCN1CCCOc1ccc(-c2nn(Cc3ccc(Cl)cc3)c(=O)c3ccccc23)cc1` [Example 54, 2-(4-Chloro-benzyl)-4-{4-[3-((R)-2-methyl-pyrrolidin-1-yl)-propoxy]-phenyl}-2H-phthalazin-1-one]: the Ki (at human H3 receptor (Table A); in assay [1] (setting [2])) was 0.1 to 100 nM in each case.

As to `C[C@@H]1CCCN1CCCOc1ccc(-c2cn[nH]c(=O)c2)cc1` [Example 223, 5-{4-[3-((R)-2-Methyl-pyrrolidin-1-yl)-propoxy]-phenyl}-2H-pyridazin-3-one], the Ki (on human H3 receptor (Table B); in assay [1] (setting [3])) was 0.1 to 100 nM in each case.

Turning to `Cn1nc(-c2cccc(OCCCN3CCCCC3)c2)c2c(c1=O)CCC2` [Example 126, 2-Methyl-4-[3-(3-piperidin-1-yl-propoxy)-phenyl]-2,5,6,7-tetrahydro-cyclopenta[d]pyridazin-1-one], the Ki at human H3 receptor (Table B) lay within 101 to 500 nM; in assay [1] (setting [3]), 501 to 1000 nM.

For `Cc1nn(-c2ccsc2)c(=O)cc1-c1ccc(OCCCN2CCC[C@H]2C)cc1` [Example 108, 6-Methyl-5-{4-[3-((R)-2-methyl-pyrrolidin-1-yl)-propoxy]-phenyl}-2-thiophen-3-yl-2H-pyridazin-3-one], the Ki (at human H3 receptor (Table B); in assay [1] (setting [3])) was 0.1 to 100 nM throughout.

Turning to `Cn1nc(-c2ccc(OC3CCN(C4CCCC4)CC3)nc2)ccc1=O` [Example 143, 6-[6-(1-Cyclopentyl-piperidin-4-yloxy)-pyridin-3-yl]-2-methyl-2H-pyridazin-3-one], the Ki on human H3 receptor (Table B) was 0.1 to 100 nM; in assay [1] (setting [3]), 501 to 1000 nM and 0.1 to 100 nM.

`COC[C@H]1CCCN1CCCOc1ccc(-c2nn(C(C)C)c(=O)c3ccsc23)cc1` [Example 27, 5-Isopropyl-7-{4-[3-((R)-2-methoxymethyl-pyrrolidin-1-yl)-propoxy]-phenyl}-5H-thieno[2,3-d]pyridazin-4-one]: the Ki (on human H3 receptor (Table A); in assay [1] (setting [2])) was over 1000 nM throughout.

On to `Cc1cc(-c2ccc(OCCCN3CCC[C@H]3C)cc2)nn(C)c1=O` [Example 40, 2,4-Dimethyl-6-{4-[3-((R)-2-methyl-pyrrolidin-1-yl)-propoxy]-phenyl}-2H-pyridazin-3-one], for which the Ki (at human H3 receptor (Table A); in assay [1] (setting [2])) was 0.1 to 100 nM each time.

As to `Cn1nc(-c2ccc(OCCCN3CCCCC3)cc2)c2c(c1=O)CCC2` [Example 57, 2-Methyl-4-[4-(3-piperidin-1-yl-propoxy)-phenyl]-2,5,6,7-tetrahydro-cyclopenta[d]pyridazin-1-one], the Ki (at human H3 receptor (Table A); in assay [1] (setting [2])) was 0.1 to 100 nM throughout.

On to `O=C1CCC(c2ccc(O[C@@H]3CCN(C4CCCC4)C3)cc2)=NN1` [Example 162, 6-[4-((R)-1-Cyclopentyl-pyrrolidin-3-yloxy)-phenyl]-4,5-dihydro-2H-pyridazin-3-one], for which the Ki on human H3 receptor (Table B) was 501 to 1000 nM; in assay [1] (setting [3]), over 1000 nM.

Regarding `CCn1nc(-c2ccc(OCCCN3CCC[C@H]3C)cc2)ccc1=O` [Example 6, 2-Ethyl-6-{4-[3-((R)-2-methyl-pyrrolidin-1-yl)-propoxy]-phenyl}-2H-pyridazin-3-one], the Ki (on human H3 receptor (Table A); in assay [1] (setting [2])) was 0.1 to 100 nM each time.

As for `C[C@@H]1CCCN1CCCOc1ccc(-c2ccc(=O)n(CCF)n2)cc1` [Example 118, 2-(2-Fluoro-ethyl)-6-{4-[3-((R)-2-methyl-pyrrolidin-1-yl)-propoxy]-phenyl}-2H-pyridazin-3-one], the Ki (on human H3 receptor (Table B); in assay [1] (setting [3])) was 0.1 to 100 nM each time.

Consider `O=c1ccc(-c2ccc(OCCCN3CCOCC3)cc2)n[nH]1` [Example 238, 6-[4-(3-Morpholin-4-yl-propoxy)-phenyl]-2H-pyridazin-3-one], for which the Ki (on human H3 receptor (Table B); in assay [1] (setting [3])) was over 1000 nM in each case.

Consider `COCn1ncc(OC)c(-c2ccc(OCCCN3CCC[C@H]3C)cc2)c1=O` [Example 236, 5-Methoxy-2-methoxymethyl-4-{4-[3-((R)-2-methyl-pyrrolidin-1-yl)-propoxy]-phenyl}-2H-pyridazin-3-one], for which the Ki (at human H3 receptor (Table B); in assay [1] (setting [3])) was 0.1 to 100 nM each time.

Take `C[C@@H]1CCCN1CCCOc1ccc(-c2cnn(C)c(=O)c2)cc1` [Example 91, 2-Methyl-5-{4-[3-((R)-2-methyl-pyrrolidin-1-yl)-propoxy]-phenyl}-2H-pyridazin-3-one]: the Ki (on human H3 receptor (Table B); in assay [1] (setting [3])) was 0.1 to 100 nM in each case.

In the case of `C[C@@H]1CCCN1CCCOc1ccc(-c2nn(C)c(=O)c3ccccc23)cc1` [Example 49, 2-Methyl-4-{4-[3-((R)-2-methyl-pyrrolidin-1-yl)-propoxy]-phenyl}-2H-phthalazin-1-one], the Ki (at human H3 receptor (Table A); in assay [1] (setting [2])) was 0.1 to 100 nM throughout.

Turning to `C[C@@H]1CCCN1CCCOc1ccc(-c2cc(-c3ccccn3)c(=O)[nH]n2)cc1` [Example 217, 6-{4-[3-((R)-2-Methyl-pyrrolidin-1-yl)-propoxy]-phenyl}-4-pyridin-2-yl-2H-pyridazin-3-one], the Ki (on human H3 receptor (Table B); in assay [1] (setting [3])) was 0.1 to 100 nM each time.

On to `O=C1NN=C(c2ccc(OC3CCN(C4CCC4)CC3)cc2)C2CC12` (single isomer, unassigned) [Example 249, 5-[4-(1-Cyclobutyl-piperidin-4-yloxy)-phenyl]-3,4-diaza-bicyclo[4.1.0]hept-4-en-2-one], for which the Ki (at human H3 receptor (Table B); in assay [1] (setting [3])) was 0.1 to 100 nM throughout.

As for `C[C@@H]1CCCN1CCCOc1ccc(C2=NNC(=O)CC2)cc1` [Example 178, 6-{4-[3-((R)-2-Methyl-pyrrolidin-1-yl)-propoxy]-phenyl}-4,5-dihydro-2H-pyridazin-3-one], the Ki (at human H3 receptor (Table B); in assay [1] (setting [3])) was 0.1 to 100 nM in each case.

`Cc1cc(OCCCN2CCC[C@H]2C)ccc1-c1cn[nH]c(=O)c1` [Example 231, 5-{2-methyl-4-[3-((R)-2-methyl-pyrrolidin-1-yl)-propoxyl]-phenyl}-2H-pyridazin-3-one]: the Ki (at human H3 receptor (Table B); in assay [1] (setting [3])) was 0.1 to 100 nM each time.

Regarding `C[C@@H]1CCCN1CCCOc1ccc2c(c1)CCc1cc(=O)[nH]nc1-2` [Example 209, 8-[3-((R)-2-Methyl-pyrrolidin-1-yl)-propoxy]-5,6-dihydro-2H-benzo[h]cinnolin-3-one], the Ki (on human H3 receptor (Table B); in assay [1] (setting [3])) was 0.1 to 100 nM throughout.

Consider `Cc1nn(-c2ccccn2)c(=O)cc1-c1ccc(OC2CCN(C3CCC3)CC2)cc1` [Example 104, 5-[4-(1-Cyclobutyl-piperidin-4-yloxy)-phenyl]-6-methyl-2-pyridin-2-yl-2H-pyridazin-3-one], for which the Ki (at human H3 receptor (Table B); in assay [1] (setting [3])) was 0.1 to 100 nM in each case.

On to `Cn1nc(-c2ccc(OC3CCNCC3)cc2)ccc1=O` [Example 73], for which the inhibition constant (Ki) at human H3 receptor (Table A) was 501 to 1000 nM; in assay [1] (setting [2]), over 1000 nM.

In assay [1], `C[C@H]1CC(=O)NN=C1c1ccc(OC2CCN(C3CCC3)CC2)cc1` [Example 191, (S)-6-[4-(1-Cyclobutyl-piperidin-4-yloxy)-phenyl]-5-methyl-4,5-dihydro-2H-pyridazin-3-one] yielded a Ki of 0.1 to 100 nM.

In the case of `C[C@@H]1CCCN1CCCOc1ccc(C2=NNC(=O)C3CC23)cc1` (single isomer, unassigned) [Example 247], the Ki in assay [1] (setting [3]) lay within 0.1 to 100 nM.

For the compound `C[C@@H]1CC(=O)NN=C1c1ccc(OC2CCN(C3CCC3)CC2)cc1` [Example 190, (R)-6-[4-(1-Cyclobutyl-piperidin-4-yloxy)-phenyl]-5-methyl-4,5-dihydro-2H-pyridazin-3-one], the Ki in assay [1] fell in the range of 0.1 to 100 nM.

On human H3 receptor (Table B), `C[C@@H]1CCCN1CCCOc1ccc(-c2n[nH]c(=O)cc2-c2ccccn2)cc1` [Example 112, 6-{4-[3-((R)-2-Methyl-pyrrolidin-1-yl)-propoxy]-phenyl}-5-pyridin-2-yl-2H-pyridazin-3-one] had a Ki of 0.1 to 100 nM.

Compound `Cn1nc(-c2ccc(OCCCN3CCC[C@@H]3CO)cc2)ccc1=O` [Example 15, 6-{4-[3-((R)-2-Hydroxymethyl-pyrrolidin-1-yl)-propoxy]-phenyl}-2-methyl-2H-pyridazin-3-one] showed an inhibitory constant (Ki) in assay [1] of 501 to 1000 nM.

Compound `Cn1nc(-c2ccc(OCCCN3CCC[C@H]3CO)cc2)ccc1=O` [Example 14, 6-{4-[3-((S)-2-Hydroxymethyl-pyrrolidin-1-yl)-propoxy]-phenyl}-2-methyl-2H-pyridazin-3-one] yielded a Ki in assay [1] of 0.1 to 100 nM.

As usually defined, the Ki is a measure of affinity in units of concentration, obtained from inhibition or displacement.
